Like-named read-outs stand apart in the source and are kept apart here. *1 amine or outer side, *2 acyl side, *3 side chain or, on linkers, in order; H or OH if unused. Where a SMILES comes first, the peptide text is derived from it. [ ]: non-standard residue; d: D form. The star is where a group is joined. Benzothienyl2CO(5-CF2PO3H2) = O=C(c1cc2cc(C(F)(F)P(=O)(O)O)ccc2s1)*; βAla(N-(4-Br-phenyl)) = O=C(CCN(c1ccc(Br)cc1)[*:1])[*:2]; NHBn(4-(4-Me-thiazol-5-yl)) = Cc1ncsc1-c1ccc(CN*)cc1; NH(CH2)8CO = O=C(CCCCCCCCN[*:1])[*:2]; Hyp = O=C(O)[C@@H]1C[C@@H](O)CN1; Tle = CC(C)(C)[C@H](N)C(=O)O

This test deals with T1, STAT6 (Homo sapiens, UniProt P42226).
T1 construct: endogenous in cells; host or cells: MOLM-16, KU-812, SKNO1, MB231, L1236
T1 sequence (P42226 1-847): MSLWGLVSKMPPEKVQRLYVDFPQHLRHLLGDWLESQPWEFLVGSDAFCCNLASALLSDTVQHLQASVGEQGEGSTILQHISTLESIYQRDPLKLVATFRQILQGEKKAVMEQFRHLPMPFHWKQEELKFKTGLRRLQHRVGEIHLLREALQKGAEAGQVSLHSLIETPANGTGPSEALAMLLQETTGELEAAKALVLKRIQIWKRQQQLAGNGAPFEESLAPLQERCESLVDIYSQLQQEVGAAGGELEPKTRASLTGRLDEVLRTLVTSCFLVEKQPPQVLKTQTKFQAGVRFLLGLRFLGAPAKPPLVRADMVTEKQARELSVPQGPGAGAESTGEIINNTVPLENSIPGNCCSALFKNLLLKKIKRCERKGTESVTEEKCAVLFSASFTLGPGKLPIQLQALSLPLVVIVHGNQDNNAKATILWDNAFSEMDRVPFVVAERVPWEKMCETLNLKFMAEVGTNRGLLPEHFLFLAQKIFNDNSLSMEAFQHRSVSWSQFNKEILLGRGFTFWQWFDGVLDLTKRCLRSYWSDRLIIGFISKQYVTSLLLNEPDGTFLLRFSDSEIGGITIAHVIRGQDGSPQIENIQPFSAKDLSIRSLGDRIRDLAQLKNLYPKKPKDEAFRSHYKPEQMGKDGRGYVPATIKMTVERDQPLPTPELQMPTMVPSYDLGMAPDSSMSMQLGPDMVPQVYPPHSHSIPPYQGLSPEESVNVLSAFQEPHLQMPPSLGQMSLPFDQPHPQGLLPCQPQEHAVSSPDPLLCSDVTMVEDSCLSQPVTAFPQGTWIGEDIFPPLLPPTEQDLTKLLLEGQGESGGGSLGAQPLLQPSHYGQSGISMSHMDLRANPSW
Briefly: Immunoblotting (Western blot) analysis of STAT6 degradation efficiency of degraders in treated cells. The test is classed as cell-based. The essentials: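 Each data point uses roughly one million cells dosed as indicated; pellets are lysed on ice, freeze-thawed, and clarified. Reduced, denatured samples (95 °C, 5 min) run on SDS gels, then membranes receive rabbit mAbs to STAT5 or STAT6 plus mouse anti-GAPDH overnight, followed by dye-labelled secondaries for fluorescence imaging.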
In general terms: In western blotting, separated proteins are transferred to a membrane and probed.

[1] abbreviates: MOLM-16 cells, class symbols, read-out: DC50 S6 MOLM-16.
Where [2] appears, read: L1236 cells, read-out: DC50 S6 L1236.

One may read the DC50 as the concentration at which degradation of the target reaches its halfway point. Take `CC(C)(C)[C@H](NC(=O)c1cc2cc(C(F)(F)P(=O)(O)O)ccc2s1)C(=O)N1C[C@@H](OCCCCCCC#Cc2cccc3c2CN(C2CCC(=O)NC2=O)C3=O)C[C@H]1C(=O)N1CCOC(c2ccc(F)c(Cl)c2)C1` (stereo partly drawn) [Compound 608, ((2-(((2S)-1-((2S,4S)-2-(2-(3-chloro-4-fluorophenyl)morpholine-4-carbonyl)-4-((8-(2-(2,6-dioxopiperidin-3-yl)-1-oxoisoindolin-4-yl)oct-7-yn-1-yl)oxy)pyrrolidin-1-yl)-3,3-dimethyl-1-oxobutan-2-yl)carbamoyl)benzo[b]thiophen-5-yl)difluoromethyl)phosphonic acid]: where the note is “MOLM-16 cells, numeric bound, read-out: DC50 S6 MOLM-16”, the DC50 is > 0.3 µM.

Take `CC(C)(C)[C@H](NC(=O)c1cc2cc(C(F)(F)P(=O)(O)O)ccc2s1)C(=O)N1Cc2cc(OCC(=O)NCCCCC#Cc3ccc4c(c3)C(=O)N(C3CCC(=O)NC3=O)C4=O)ccc2C[C@H]1C(=O)N1CCC[C@H](c2ccccc2)C1` (stereo partly drawn) [Compound 556, ((2-(((2S)-1-((3S)-7-(2-((6-(2-(2,6-dioxopiperidin-3-yl)-1,3-dioxoisoindolin-5-yl)hex-5-yn-1-yl)amino)-2-oxoethoxy)-3-((R)-3-phenylpiperidine-1-carbonyl)-3,4-dihydroisoquinolin-2(1H)-yl)-3,3-dimethyl-1-oxobutan-2-yl)carbamoyl)benzo[b]thiophen-5-yl)difluoromethyl)phosphonic acid]: under setting [1], the DC50 was > 10 µM.

For `Cc1ncsc1-c1ccc([C@H](C)NC(=O)[C@@H]2C[C@@H](O)CN2C(=O)[C@@H](NC(=O)CCNC(=O)CC(=O)N2CCN(C(=O)[C@@H](NC(=O)c3cc4cc(C(F)(F)P(=O)(O)O)ccc4s3)C(C)(C)C)[C@H](C(=O)N3CCC[C@H](c4ccccc4)C3)C2)C(C)(C)C)cc1` [Compound 453, (difluoro(2-(((S)-1-((S)-4-(3-((3-(((S)-1-((2S,4R)-4-hydroxy-2-(((S)-1-(4-(4-methylthiazol-5-yl)phenyl)ethyl)carbamoyl)pyrrolidin-1-yl)-3,3-dimethyl-1-oxobutan-2-yl)amino)-3-oxopropyl)amino)-3-oxopropanoyl)-2-((R)-3-phenylpiperidine-1-carbonyl)piperazin-1-yl)-3,3-dimethyl-1-oxobutan-2-yl)carbamoyl)benzo[b]thiophen-5-yl)methyl)phosphonic acid], the DC50 is > 10 µM under setting [2] and > 10 µM under setting [1].

Regarding `CC(C)(C)[C@H](NC(=O)c1cc2cc(C(F)(F)P(=O)(O)O)ccc2s1)C(=O)N1CCN(C(=O)CC(=O)NCC#Cc2cccc3c2C(=O)N(C2CCC(=O)NC2=O)C3=O)C[C@H]1C(=O)N1CCO[C@H](c2ccccc2)C1` (stereo partly drawn) [Compound 507, ((2-(((2S)-1-((2S)-4-(3-((3-(2-(2,6-dioxopiperidin-3-yl)-1,3-dioxoisoindolin-4-yl)prop-2-yn-1-yl)amino)-3-oxopropanoyl)-2-((R)-2-phenylmorpholine-4-carbonyl)piperazin-1-yl)-3,3-dimethyl-1-oxobutan-2-yl)carbamoyl)benzo[b]thiophen-5-yl)difluoromethyl)phosphonic acid], the DC50 under setting [1] was > 10 µM.

`CC(C)(C)[C@H](NC(=O)c1cc2cc(C(F)(F)P(=O)(O)O)ccc2s1)C(=O)N1Cc2cc(OCC(=O)NCCC#Cc3ccc4c(c3)C(=O)N(C3CCC(=O)NC3=O)C4=O)ccc2C[C@H]1C(=O)N1CCC[C@H](c2ccccc2)C1` (stereo partly drawn) [Compound 552, ((2-(((2S)-1-((3S)-7-(2-((4-(2-(2,6-dioxopiperidin-3-yl)-1,3-dioxoisoindolin-5-yl)but-3-yn-1-yl)amino)-2-oxoethoxy)-3-((R)-3-phenylpiperidine-1-carbonyl)-3,4-dihydroisoquinolin-2(1H)-yl)-3,3-dimethyl-1-oxobutan-2-yl)carbamoyl)benzo[b]thiophen-5-yl)difluoromethyl)phosphonic acid]: under setting [1], the DC50 was > 10 µM.

For `CC(C)(C)[C@H](NC(=O)c1cc2cc(C(F)(F)P(=O)(O)O)ccc2s1)C(=O)N1Cc2cc(OCC(=O)NCCCCCCCCCC#Cc3cccc4c3C(=O)N(C3CCC(=O)NC3=O)C4=O)ccc2C[C@H]1C(=O)N1CCC[C@H](c2ccccc2)C1` (stereo partly drawn) [Compound 561, ((2-(((2S)-1-((3S)-7-(2-((11-(2-(2,6-dioxopiperidin-3-yl)-1,3-dioxoisoindolin-4-yl)undec-10-yn-1-yl)amino)-2-oxoethoxy)-3-((R)-3-phenylpiperidine-1-carbonyl)-3,4-dihydroisoquinolin-2(1H)-yl)-3,3-dimethyl-1-oxobutan-2-yl)carbamoyl)benzo[b]thiophen-5-yl)difluoromethyl)phosphonic acid], the DC50 under setting [1] is > 10 µM.

Consider `Cc1ncsc1-c1ccc([C@H](C)NC(=O)[C@@H]2C[C@@H](O)CN2C(=O)[C@@H](NC(=O)CCCCCCCNC(=O)COc2ccc3c(c2)CN(C(=O)[C@@H](NC(=O)c2cc4cc(C(F)(F)P(=O)(O)O)ccc4s2)C(C)(C)C)[C@H](C(=O)N2CCC[C@H](c4ccccc4)C2)C3)C(C)(C)C)cc1` [Compound 476, (difluoro(2-(((S)-1-((S)-7-(2-((8-(((S)-1-((2S,4R)-4-hydroxy-2-(((S)-1-(4-(4-methylthiazol-5-yl)phenyl)ethyl)carbamoyl)pyrrolidin-1-yl)-3,3-dimethyl-1-oxobutan-2-yl)amino)-8-oxooctyl)amino)-2-oxoethoxy)-3-((R)-3-phenylpiperidine-1-carbonyl)-3,4-dihydroisoquinolin-2(1H)-yl)-3,3-dimethyl-1-oxobutan-2-yl)carbamoyl)benzo[b]thiophen-5-yl)methyl)phosphonic acid], for which the DC50 under setting [1] was > 10 µM.

Regarding `Cc1ncsc1-c1ccc(CNC(=O)[C@@H]2C[C@@H](O)CN2C(=O)[C@@H](NC(=O)CCCCCCCCNC(=O)CCN(C(=O)[C@@H]2CCCN2C(=O)[C@@H](NC(=O)c2cc3cc(C(F)(F)P(=O)(O)O)ccc3s2)C(C)(C)C)c2ccc(Br)cc2)C(C)(C)C)cc1` [Compound 397] ({Benzothienyl2CO(5-CF2PO3H2)}-[Tle]P[βAla(N-(4-Br-phenyl))][NH(CH2)8CO][Tle][Hyp]-{NHBn(4-(4-Me-thiazol-5-yl))}), the DC50 (read-out: DC50 S6 MB231, MB231 cells) is > 10 µM.

On to `Cc1ncsc1-c1ccc([C@H](C)NC(=O)[C@@H]2C[C@@H](O)CN2C(=O)[C@@H](NC(=O)CCCCCCCCNC(=O)CC(=O)N2CCN(C(=O)[C@@H](NC(=O)c3cc4cc(C(F)(F)P(=O)(O)O)ccc4s3)C(C)(C)C)[C@H](C(=O)N3CCO[C@H](c4ccccc4)C3)C2)C(C)(C)C)cc1` [Compound 450, (difluoro(2-(((S)-1-((S)-4-(3-((9-(((S)-1-((2S,4R)-4-hydroxy-2-(((S)-1-(4-(4-methylthiazol-5-yl)phenyl)ethyl)carbamoyl)pyrrolidin-1-yl)-3,3-dimethyl-1-oxobutan-2-yl)amino)-9-oxononyl)amino)-3-oxopropanoyl)-2-((R)-2-phenylmorpholine-4-carbonyl)piperazin-1-yl)-3,3-dimethyl-1-oxobutan-2-yl)carbamoyl)benzo[b]thiophen-5-yl)methyl)phosphonic acid], for which the DC50 by setting is: under setting [2], > 10 µM; under setting [1], > 10 µM.

`Cc1ncsc1-c1ccc([C@H](C)NC(=O)[C@@H]2C[C@@H](O)CN2C(=O)[C@@H](NC(=O)CCCNC(=O)COc2ccc3c(c2)CN(C(=O)[C@@H](NC(=O)c2cc4cc(C(F)(F)P(=O)(O)O)ccc4s2)C(C)(C)C)[C@H](C(=O)N2CCC[C@H](c4ccccc4)C2)C3)C(C)(C)C)cc1` [Compound 472, (difluoro(2-(((S)-1-((S)-7-(2-((4-(((S)-1-((2S,4R)-4-hydroxy-2-(((S)-1-(4-(4-methylthiazol-5-yl)phenyl)ethyl)carbamoyl)pyrrolidin-1-yl)-3,3-dimethyl-1-oxobutan-2-yl)amino)-4-oxobutyl)amino)-2-oxoethoxy)-3-((R)-3-phenylpiperidine-1-carbonyl)-3,4-dihydroisoquinolin-2(1H)-yl)-3,3-dimethyl-1-oxobutan-2-yl)carbamoyl)benzo[b]thiophen-5-yl)methyl)phosphonic acid]: under setting [1], the DC50 is > 10 µM.

Consider `CC(C)(C)[C@H](NC(=O)c1cc2cc(C(F)(F)P(=O)(O)O)ccc2s1)C(=O)N1CCN(C(=O)CC(=O)NCCCCC#Cc2ccc3c(c2)C(=O)N(C2CCC(=O)NC2=O)C3=O)C[C@H]1C(=O)N1CCC[C@H](c2ccccc2)C1` (stereo partly drawn) [Compound 528, ((2-(((2S)-1-((2S)-4-(3-((6-(2-(2,6-dioxopiperidin-3-yl)-1,3-dioxoisoindolin-5-yl)hex-5-yn-1-yl)amino)-3-oxopropanoyl)-2-((R)-3-phenylpiperidine-1-carbonyl)piperazin-1-yl)-3,3-dimethyl-1-oxobutan-2-yl)carbamoyl)benzo[b]thiophen-5-yl)difluoromethyl)phosphonic acid], for which the DC50 under setting [1] is > 10 µM.

For the origin of these results see US20230295197A1, “STAT5 and STAT6 Degraders and Uses Thereof” (REGENTS OF THE UNIVERSITY OF MICHICAN, priority 2022, published 2023).
